Assays:
[1] = test system: mild to moderate asthma patients; details: human, in vivo
[2] = test system: subjects with severe asthma treated with oral corticosteroids; assay: Lidocaine for reducing concurrent corticosteroids in steroid dependent severe asthma (Example 7); assay type: in vivo, human; details: interim, all patients past visit 7

Compound: CCN(CC)CC(=O)Nc1c(C)cccc1C [lidocaine, acetamide 2-(diethylamino)-N-(2,6-dimethylphenyl)]
- bronchospasm (decrease in FEV1 >20% 30 min after aerosol administration) [1]: no reports of bronchospasm
- loss of gag reflex [1]: No loss of gag reflex was reported
- tolerability and safety overall [1]: no significant adverse events related to study drug
- tracheal aspiration of food or liquid [1]: No case of tracheal aspiration of food or liquid was reported
- relation of reported adverse events to treatment [2]: None of the reported adverse events were thought to be related to the lidocaine treatment

Source: patent US20060062739A1 (priority 2004, published 2006)
